Experimental data from patent US9931342B2, “Compositions and methods for the treatment of cancer” (Duke University, priority 2016, dated 2018).

Columns and labels:
1833 breast cancer cells = experiment: Breast cancer bone metastasis after intra-cardiac injection of 1833 cells in mice; type: in vivo
Text: (A) Experimental design. (B) Survival of mice after intra-cardiac injection of 1833 (1×10^5) breast cancer cells and treatment with either dimethyl sulfoxide (DMSO) control or the allosteric ABL inhibitor GNF5. n=10 mice per group. (C) Bioluminescent images of representative mice at day 22 after inoculation. (D) Quantification of bone metastases. n=10 mice per group. (E and F) Representative H&E staining (E) and quantification (F) of H&E stained tumor area of bone lesions. Arrows indicate tumor. n=3 mice per group. Scale bar, 200 μm. (G and H) Representative x-ray and μCT reconstruction (G) of mouse tibias and quantification (H) of bone volume/total volume. n=3 mice per group.
Procedures involving mice were approved and performed following the guidelines of the Institutional Animal Care and Use Committee (IACUC) of Duke University Division of Laboratory Animal Resources (DLAR). Age-matched female athymic NCr nu/nu mice (5 to 6 weeks old) were used for xenograft experiments. For intra-cardiac injections, cells were harvested from sub-confluent culture plates, washed with phosphate-buffered saline (PBS), and resuspended at 106/ml (1833) or 5×10^6/ml (SCP28) in PBS; 0.1 ml of the suspended cells was injected into the left cardiac ventricle using 30-gauge needles. Mice were anesthetized with isoflurane before injection and imaged by bioluminescence imaging. For intra-tibial injections, mice were anesthetized using a mixture of ketamine (100 mg/kg) and xylazine (10 mg/kg). The injection site was cleaned with a 70% alcohol wipe. Single-cell suspensions (1×10^5 cells) in a final volume of […] were injected into the upper half of the tibia medullary cavity, as felt by a lack of resistance when pushing cells into the cavity. Bioluminescence imaging was used to confirm successful cancer cell inoculation and progression of metastatic bone lesions. The allosteric inhibitor GNF5 was synthesized by the Duke University Small Molecule Synthesis Facility. For drug treatment, the mice were dosed daily with GNF5 in DMSO/peanut oil (1:9) at 50 mg/kg by intraperitoneal injection.
Hind limb bones were excised, fixed in 10% neutral-buffered formalin, and imaged using a μCT scanner (SkyScan 1176, Bruker Corp.) at […] and 180° scanning with a rotation step of 0.7° per image, 242-ms exposure time, 55-kV photon energy, and […]. The images were reconstructed using NReconServer, and bone volume was analyzed by CT analysis software (CTAn, Bruker Corp.).
Hind limb bones were excised, fixed in 10% neutral-buffered formalin, decalcified, and embedded in paraffin for H&E staining (Zhang et al., Cancer Cell, 2009).

RAF-ERK pathway = experiment: ERK activation, Western blot of 1833 breast cancer cell lysates; type: cell-based, human; conditions: 10 μM, 3 hours, 1833 cells
Protocol: (§1) Cells were lysed in radio-immunoprecipitation assay buffer with protease and phosphatase inhibitors. Cell debris was removed by microcentrifugation, and protein was quantified. Alternatively, equal cell numbers were plated onto six-well plates, and 24 hours later, conditioned medium was harvested and concentrated using Amicon Ultra Centrifugal Filters (Millipore). Equal amounts of protein or conditioned medium were separated by SDS-polyacrylamide gel electrophoresis and transferred onto nitrocellulose membranes and probed with the indicated antibodies.

TAZ = TAZ protein abundance, immunoblot of 1833 cells; type: cell-based, human; conditions: 20 μM, 24 hours
Protocol: Control 1833 cells or 1833 cells expressing murine Ab12-E505K mutant protein were plated (3×10^5 cells per group) in six well plates. Cells were then treated with vehicle (DMSO) or GNF5 (20 μM) for 24 hours and immunoblotted with the indicated antibodies. n=3 blots.
as §1

FH-deficient HLRCC = conditions: cited from earlier work
[1] = 50 mg/kg daily i.p. starting day 8

Compound: O=C(NCCO)c1cccc(-c2cc(Nc3ccc(OC(F)(F)F)cc3)ncn2)c1 [GNF5]
- bone destruction (x-ray, μCT) (1833 breast cancer cells; [1]): decreased
- bone tumor burden by histological analyses (H&E) (1833 breast cancer cells; [1]): decrease
- bone metastasis burden by bioluminescence imaging (1833 breast cancer cells; 50 mg/kg daily i.p. starting day 8, day 22 imaging): decrease
- ratio of bone volume to total volume (μCT) (1833 breast cancer cells; 50 mg/kg daily i.p. starting day 8, mouse tibias): increased
- survival of tumor-bearing mice (1833 breast cancer cells; 50 mg/kg daily i.p. starting day 8 after intra-cardiac injection): significant increase
- ERK activation (phospho-Erk) (RAF-ERK pathway): does not activate
- TAZ protein abundance (TAZ; 1833 cells expressing murine ABL2-E505K (GNF5-resistant mutant)): not decreased
- TAZ protein abundance (TAZ; control 1833 cells): decreased

Compound: Cc1ccc(NC(=O)c2ccc(CN3CCN(C)CC3)cc2)cc1Nc1nccc(-c2cccnc2)n1 [imatinib]
- cytotoxicity to FH-deficient HLRCC (FH-deficient HLRCC): cytotoxic
- ERK activation (phospho-Erk) (RAF-ERK pathway): promotes ERK activation

Compound: COc1cc2c(Nc3ccc(Br)cc3F)ncnc2cc1OCC1CCN(C)CC1 [vandetanib]
- cytotoxicity to FH-deficient HLRCC (FH-deficient HLRCC): cytotoxic
